Experimental data: patent publication US5773646A, “Meta-substituted phenylene derivatives” (G. D. Searle & Co., priority 1997, dated 1998)
pIC50: −log10 of the molar value. Where a name gives a salt, the structure may show the parent alone.

Assays:
[1] = molecular target: T1, Human fibrinogen receptor (αIIb β3) (Homo sapiens, UniProt P05106+P08514); experiment: Purified IIb/IIIa receptor assay (solid phase receptor assay, biotinylated vitronectin competition); details: inhibition of 50% of the maximum binding of biotinylated vitronectin; 1 nM labeled ligand, 2 hours, room temperature, highest concentration of test compound 1.0×10^-4 M
T1 construct: Human fibrinogen receptor (αIIb β3) was purified from outdated platelets; from tissue; host or cells: outdated human platelets
In short: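 Platelet-purified αIIbβ3 was coated at 100 ng/well in TBS with 1 mM Ca²⁺/Mg²⁺/Mn²⁺, pH 7.4, then BSA-blocked. Compound (up to 1.0×10⁻⁴ M final) competed with 1 nM biotinylated vitronectin for 2 h at room temperature. Bound ligand was detected with HRP anti-biotin at A450, normalized to maximum binding, and curve-fitted.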

[2] = molecular target: T2, Human vitronectin receptor (αv β3) (Homo sapiens, UniProt P05106+P06756); experiment: Vitronectin adhesion assay (solid phase receptor assay, biotinylated vitronectin competition); type: binding; details: inhibition of 50% of the maximum binding of biotinylated vitronectin; 1 nM labeled ligand, 2 hours, room temperature, highest concentration of test compound 1.0×10^-4 M; read-out: AvB3 IC50
T2 construct: Human vitronectin receptor(αv β3) was purified from human placenta; from tissue; host or cells: human placenta
In short: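 Placenta-purified αvβ3 coated at 1.0 μg/mL in TBS (1 mM Ca, Mg, Mn, pH 7.4), overnight 4 °C. Compound competed 2 h at RT with 1 nM biotinylated vitronectin (final; top compound 1.0×10^-4 M); bound ligand detected by HRP anti-biotin/OPD at 450 nm, normalized to no-competitor controls, four-parameter fit.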

Compound | pIC50 [1] | pIC50 [2]
NC(=O)N=C(N)Nc1cccc(S(=O)(=O)Nc2cccc(C(CC(=O)O)c3cc(Cl)cc(Cl)c3)c2)c1 (stereo not drawn) [Example 90, β-[3-[[[3-[[amino[(aminocarbonyl)imino]methyl]amino]phenyl]sulfonyl]amino]phenyl]-3,5-dichlorobenzenepropanoic Acid, Trifluoroacetate Salt] | 4.86 | 7.05
N=C(N)Nc1cccc(/C=C/C(=O)c2cccc(OCC(=O)O)c2)c1 [Example 73, 2-[3-[3-[3-[(aminoiminomethyl)amino]phenyl]-1-oxopropenyl]phenoxy]acetic acid, monohydrochloride] | 4.95 | 6.23
CCOC(=O)CCc1cccc(CNC(=O)c2cccc(NC(=O)NCc3ccccc3)c2)c1 [Example 30, ethyl 3-[[[[3-[[[(phenylmethyl)amino]carbonyl]amino]phenyl]carbonyl]amino]methyl]benzenepropanoate] | < 4.00 | < 4.00
CC(CC(=O)O)c1cccc(CNC(=O)c2cccc(NC3=NC(=O)CN3)c2)c1 (racemic) [Example 67, (±) 3-[[[[3-[(4,5-dihydro-4-oxo-1H-imidazol-2-yl)amino]phenyl]carbonyl]amino]methyl]-β-methylbenzenepropanoic acid] | 4.89 | 6.91
O=C(O)CC(c1cc(F)cc(F)c1)c1cccc(NS(=O)(=O)c2cccc(NC=NCc3ccccc3)c2)c1 (stereo not drawn) [Example 84, 3,5-difluoro-β-[3-[[[3-[[[(phenylmethyl)imino]methyl]amino]phenyl]sulfonyl]amino]phenyl]benzenepropanoic Acid, Trifluoroacetate Salt] | 4.82 | 7.09
O=C(O)CCc1cccc(CNC(=O)c2cccc(NC(=O)NCc3ccccc3)c2)c1 [Example 31, 3-[[[[3-[[[(phenylmethyl)amino]carbonyl]amino]phenyl]carbonyl]amino]methyl]benzenepropanoic acid] | 5.27 | 5.45
